Results as given in paper PMC7865522, “Analyzing Kinase Similarity in Small Molecule and Protein Structural Space to Explore the Limits of Multi-Target Screening” (Molecules, 2021).

Legend:
panel of 290 kinases = system: panel of 290 kinases; parameters: method as in PMID 18183025; settings: cited from earlier work
PI3K [1] = target: T1, PI3K (Homo sapiens, UniProt P42336); test: DiscoverX KINOMEscan competition binding assay; parameters: purchased DiscoverX (KINOMEscan service); host or cells: E. coli BL21-derived host (T7 phage) or HEK-293; settings: compound 10 µM; lower values = higher affinity; below 35% = significant binding
Experimental: Ligand binding experiments for the molecules selected from Profiles 1 and 2 towards nine kinases (EGFR, ErbB2, LCK, CDK2, BRAF, MET, p38α, PI3K and VEGFR2) and for molecules selected from Profiles 3 and 4 towards four kinases (EGFR, ErbB2, BRAF and VEGFR2) were carried out by DiscoverX using the supplied protocol as described in the Supplementary Materials. Briefly, ligand affinity was measured by competition with a resin-bound standard ligand and washed-off kinase concentration was determined via qPCR.
Summarizing, binding of a compound to a kinase was tested in comparison to a control compound (see Table S2). […]
1.1. DiscoverX kinase assay
For most assays, kinase-tagged T7 phage strains were grown in parallel in 24-well blocks in an E.coli host derived from the BL21 strain. E.coli were grown to log-phase and infected with T7 phage from a frozen stock (multiplicity of infection = 0.4) and incubated with shaking at 32°C until lysis (90-150 minutes). The lysates were centrifuged (6,000 x g) and ﬁltered (0.2µm) to remove cell debris.
The remaining kinases were produced in HEK-293 cells and subsequently tagged with DNA for qPCR detection. Streptavidin-coated magnetic beads were treated with biotinylated small molecule ligands for 30 minutes at room temperature to generate afﬁnity resins for the kinases. The liganded beads were blocked with excess biotin and washed with blocking buffer (SeaBlock [Pierce], 1% BSA, 0.05% Tween 20, 1 mM DTT) to remove unbound ligands and to reduce non-speciﬁc phage binding. Binding reactions were assembled by combining kinases, liganded afﬁnity beads, and test compounds in 1x binding buffer (20% SeaBlock, 0.17x PBS, 0.05% Tween 20, 6 mM DTT). Test compounds were prepared as 40x stocks in 100% DMSO and directly diluted into the assay. All reactions were performed in polypropylene 384-well plates in a ﬁnal volume of 0.02 ml. The assay plates were incubated at room temperature with shaking for 1 hour and the afﬁnity beads were washed with wash buffer (1x PBS, 0.05% Tween 20). The beads were then re-suspended in elution buffer (1x PBS, 0.05% Tween 20, 0.5 µM non-biotinylated afﬁnity ligand) and incubated at room temperature with shaking for 30 minutes. The kinase concentration in the eluates was measured by qPCR. […]
Table S2. Experimental % control values from the DiscoverX kinase assay. Compounds were tested against the nine kinases EGFR, ErbB2, LCK, CDK2, BRAF, MET, p38α, PI3K and VEGFR2, unless otherwise stated. Binding of kinase and compound were tested at a compound concentration of 10 µM and in comparison to a control compound. Lower values indicate a higher afﬁnity of the compound to the protein and values below 35% indicate signiﬁcant binding according to information of the CRO. […]
a Compounds were only tested against four kinases (EGFR, ErbB2, BRAF and VEGFR2). b Compound was selected independently from two docking proﬁles and tested separately during
Target sequence in this assay (P42336 whole entry): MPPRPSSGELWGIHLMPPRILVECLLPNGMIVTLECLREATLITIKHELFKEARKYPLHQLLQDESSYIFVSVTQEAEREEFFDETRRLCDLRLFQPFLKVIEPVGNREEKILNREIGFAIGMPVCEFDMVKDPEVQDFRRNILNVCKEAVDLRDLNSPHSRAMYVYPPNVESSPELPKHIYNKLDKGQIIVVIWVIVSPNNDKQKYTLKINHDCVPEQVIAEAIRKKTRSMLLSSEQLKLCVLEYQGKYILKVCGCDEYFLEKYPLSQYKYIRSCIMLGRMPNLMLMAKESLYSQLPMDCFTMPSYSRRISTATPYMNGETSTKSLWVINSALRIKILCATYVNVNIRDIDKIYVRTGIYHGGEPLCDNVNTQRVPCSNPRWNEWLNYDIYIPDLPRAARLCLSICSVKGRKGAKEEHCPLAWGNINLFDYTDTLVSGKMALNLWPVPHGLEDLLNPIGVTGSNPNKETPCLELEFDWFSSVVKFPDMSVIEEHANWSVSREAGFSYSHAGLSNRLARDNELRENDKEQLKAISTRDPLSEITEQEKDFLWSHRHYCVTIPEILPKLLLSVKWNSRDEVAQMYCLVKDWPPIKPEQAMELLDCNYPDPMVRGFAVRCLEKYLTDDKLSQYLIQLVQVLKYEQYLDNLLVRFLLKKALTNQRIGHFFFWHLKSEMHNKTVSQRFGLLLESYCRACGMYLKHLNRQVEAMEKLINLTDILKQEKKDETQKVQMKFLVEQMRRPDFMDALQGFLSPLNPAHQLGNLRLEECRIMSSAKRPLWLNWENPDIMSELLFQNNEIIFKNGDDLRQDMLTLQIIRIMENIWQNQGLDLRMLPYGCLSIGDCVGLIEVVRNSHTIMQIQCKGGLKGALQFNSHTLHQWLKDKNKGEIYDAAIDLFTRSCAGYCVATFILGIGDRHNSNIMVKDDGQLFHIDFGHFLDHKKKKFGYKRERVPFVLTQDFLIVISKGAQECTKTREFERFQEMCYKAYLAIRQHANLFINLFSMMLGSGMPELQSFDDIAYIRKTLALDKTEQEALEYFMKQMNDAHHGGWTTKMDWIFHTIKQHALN

ErbB2 [2] = target: T2, ErbB2 (Homo sapiens, UniProt P04626); test: Eurofins in vitro kinase inhibition assay; type: biochemical; settings: compound 20 µM; mean (SD); above 50% significant, 25-50% weak
T2 construct: purchased DiscoverX (KINOMEscan service); host or cells: E. coli BL21-derived host (T7 phage) or HEK-293
Experimental: (§1) Kinase inhibition assays for EGFR, ErbB2, PI3K and BRAF were carried out by Eurofins Cerep following the protocols of Weber et al. (EGFR), Quian et al. (ErbB2), Sinnamon et al. (PI3K) and Kupcho et al. (BRAF). Briefly, except for PI3K, compounds were incubated with the respective kinase, ATP, and a substrate analog, and the effect of each compound on phosphorylation was measured. In the case of PI3K, the displacement of biotinylated PIP3 from a PIP3-binding complex by unlabelled PIP3 (produced from PIP2 by PI3K) was measured by Homogeneous Time Resolved Fluorescence (HTRF).
(§2) Finally, inhibition of the respective kinases is calculated as the percentage inhibition of control activity.
(§3) Table S3. Experimental results from the Euroﬁns assay. Inhibition of four kinases (EGFR, PI3K, ErbB2, BRAF) was measured at compound concentrations of 20 µM. Inhibition was calculated as % inhibition of control activity. According to CRO, values above 50% inhibition represent signiﬁcant inhibition, values above 25% weak inhibition effect and values below 25% as well as negative values are usually not signiﬁcant. Results are reported in mean (SD) format. […]
(§4) a Compound interfered with assay readout.

BRAF [3] = target: T3, BRAF (Homo sapiens, UniProt P15056); test: Eurofins in vitro kinase inhibition assay; type: biochemical; settings: compound 20 µM; mean (SD); above 50% significant, 25-50% weak
T3 construct: purchased DiscoverX (KINOMEscan service); host or cells: E. coli BL21-derived host (T7 phage) or HEK-293
Experimental: as §1, §2, §3, §4

EGFR [4] = target: T4, EGFR (Homo sapiens, UniProt P00533); test: Eurofins in vitro kinase inhibition assay; type: biochemical; settings: compound 20 µM; mean (SD); above 50% significant, 25-50% weak
T4 construct: purchased DiscoverX (KINOMEscan service); host or cells: E. coli BL21-derived host (T7 phage) or HEK-293
Experimental: as §1, §2, §3, §4

CDK2 = target: T5, CDK2 (Homo sapiens, UniProt P24941); test: DiscoverX KINOMEscan competition binding assay; settings: compound 10 µM; lower values = higher affinity; below 35% = significant binding
T5 construct: purchased DiscoverX (KINOMEscan service); host or cells: E. coli BL21-derived host (T7 phage) or HEK-293
How it was run: (§5)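 Read-out is qPCR of kinase eluted from an immobilized-ligand affinity resin after competition with test compound (10 µM), expressed as % of control; lower values mean stronger binding. Kinase came as phage-tagged or HEK-293-derived DNA-tagged protein.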

p38α = target: T6, p38α (Homo sapiens, UniProt Q16539); test: DiscoverX KINOMEscan competition binding assay; settings: compound 10 µM; lower values = higher affinity; below 35% = significant binding
T6 construct: purchased DiscoverX (KINOMEscan service); host or cells: E. coli BL21-derived host (T7 phage) or HEK-293
How it was run: as §5

ErbB2 [5] = target: T2, ErbB2; test: DiscoverX KINOMEscan competition binding assay; settings: compound 10 µM; lower values = higher affinity; below 35% = significant binding
How it was run: as §5

BRAF [6] = target: T3, BRAF; test: DiscoverX KINOMEscan competition binding assay; settings: compound 10 µM; lower values = higher affinity; below 35% = significant binding
How it was run: as §5

LCK = target: T7, LCK (Homo sapiens, UniProt P06239); test: DiscoverX KINOMEscan competition binding assay; settings: compound 10 µM; lower values = higher affinity; below 35% = significant binding
T7 construct: purchased DiscoverX (KINOMEscan service); host or cells: E. coli BL21-derived host (T7 phage) or HEK-293
How it was run: as §5

MET = target: T8, MET (Homo sapiens, UniProt P08581); test: DiscoverX KINOMEscan competition binding assay; settings: compound 10 µM; lower values = higher affinity; below 35% = significant binding
T8 construct: purchased DiscoverX (KINOMEscan service); host or cells: E. coli BL21-derived host (T7 phage) or HEK-293
How it was run: as §5

VEGFR2 = target: T9, VEGFR2 (Homo sapiens, UniProt P35968); test: DiscoverX KINOMEscan competition binding assay; settings: compound 10 µM; lower values = higher affinity; below 35% = significant binding
T9 construct: purchased DiscoverX (KINOMEscan service); host or cells: E. coli BL21-derived host (T7 phage) or HEK-293
How it was run: as §5

EGFR [7] = target: T4, EGFR; test: DiscoverX KINOMEscan competition binding assay; settings: compound 10 µM; lower values = higher affinity; below 35% = significant binding
How it was run: as §5

PI3K [8] = target: T1, PI3K; test: Eurofins in vitro kinase inhibition assay (HTRF, PIP3 displacement); type: biochemical; parameters: purchased Eurofins Cerep (contract assay); settings: compound 20 µM; mean (SD); above 50% significant, 25-50% weak
Experimental: as §1, §2, §3, §4
Target sequence in this assay (P42336 whole entry): as above
Target sequence in this assay (P27986 whole entry partner): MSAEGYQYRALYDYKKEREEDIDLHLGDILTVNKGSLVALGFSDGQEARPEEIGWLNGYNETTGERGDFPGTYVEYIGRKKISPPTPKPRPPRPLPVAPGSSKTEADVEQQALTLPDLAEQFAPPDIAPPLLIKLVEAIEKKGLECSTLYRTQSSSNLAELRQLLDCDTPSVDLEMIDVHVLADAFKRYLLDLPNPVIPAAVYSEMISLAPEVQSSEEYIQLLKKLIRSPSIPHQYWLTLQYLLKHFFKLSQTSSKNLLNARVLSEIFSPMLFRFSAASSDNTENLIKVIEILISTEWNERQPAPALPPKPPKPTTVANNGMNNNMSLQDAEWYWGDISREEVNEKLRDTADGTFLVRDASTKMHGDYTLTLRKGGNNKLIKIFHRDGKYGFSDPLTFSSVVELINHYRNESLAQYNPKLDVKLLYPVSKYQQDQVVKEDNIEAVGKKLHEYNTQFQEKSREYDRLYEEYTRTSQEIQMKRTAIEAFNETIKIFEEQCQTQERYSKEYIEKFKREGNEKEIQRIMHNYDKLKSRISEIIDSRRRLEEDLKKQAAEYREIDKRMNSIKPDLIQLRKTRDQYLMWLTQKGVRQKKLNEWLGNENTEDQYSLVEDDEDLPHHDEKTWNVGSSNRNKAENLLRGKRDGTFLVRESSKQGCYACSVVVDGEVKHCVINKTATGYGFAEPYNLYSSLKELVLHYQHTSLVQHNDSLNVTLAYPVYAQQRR

T6 sequence (Q16539 whole entry): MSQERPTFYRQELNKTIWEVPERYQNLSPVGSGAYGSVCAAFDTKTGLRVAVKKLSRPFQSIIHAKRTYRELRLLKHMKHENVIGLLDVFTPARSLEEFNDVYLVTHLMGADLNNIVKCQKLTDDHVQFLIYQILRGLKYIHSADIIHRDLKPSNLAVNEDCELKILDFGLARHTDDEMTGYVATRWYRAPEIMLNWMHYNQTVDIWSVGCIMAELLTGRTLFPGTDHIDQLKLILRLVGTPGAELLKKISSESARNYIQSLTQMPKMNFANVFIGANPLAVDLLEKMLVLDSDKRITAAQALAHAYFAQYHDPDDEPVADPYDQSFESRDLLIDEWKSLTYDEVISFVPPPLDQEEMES
T2 sequence (P04626 23-1255): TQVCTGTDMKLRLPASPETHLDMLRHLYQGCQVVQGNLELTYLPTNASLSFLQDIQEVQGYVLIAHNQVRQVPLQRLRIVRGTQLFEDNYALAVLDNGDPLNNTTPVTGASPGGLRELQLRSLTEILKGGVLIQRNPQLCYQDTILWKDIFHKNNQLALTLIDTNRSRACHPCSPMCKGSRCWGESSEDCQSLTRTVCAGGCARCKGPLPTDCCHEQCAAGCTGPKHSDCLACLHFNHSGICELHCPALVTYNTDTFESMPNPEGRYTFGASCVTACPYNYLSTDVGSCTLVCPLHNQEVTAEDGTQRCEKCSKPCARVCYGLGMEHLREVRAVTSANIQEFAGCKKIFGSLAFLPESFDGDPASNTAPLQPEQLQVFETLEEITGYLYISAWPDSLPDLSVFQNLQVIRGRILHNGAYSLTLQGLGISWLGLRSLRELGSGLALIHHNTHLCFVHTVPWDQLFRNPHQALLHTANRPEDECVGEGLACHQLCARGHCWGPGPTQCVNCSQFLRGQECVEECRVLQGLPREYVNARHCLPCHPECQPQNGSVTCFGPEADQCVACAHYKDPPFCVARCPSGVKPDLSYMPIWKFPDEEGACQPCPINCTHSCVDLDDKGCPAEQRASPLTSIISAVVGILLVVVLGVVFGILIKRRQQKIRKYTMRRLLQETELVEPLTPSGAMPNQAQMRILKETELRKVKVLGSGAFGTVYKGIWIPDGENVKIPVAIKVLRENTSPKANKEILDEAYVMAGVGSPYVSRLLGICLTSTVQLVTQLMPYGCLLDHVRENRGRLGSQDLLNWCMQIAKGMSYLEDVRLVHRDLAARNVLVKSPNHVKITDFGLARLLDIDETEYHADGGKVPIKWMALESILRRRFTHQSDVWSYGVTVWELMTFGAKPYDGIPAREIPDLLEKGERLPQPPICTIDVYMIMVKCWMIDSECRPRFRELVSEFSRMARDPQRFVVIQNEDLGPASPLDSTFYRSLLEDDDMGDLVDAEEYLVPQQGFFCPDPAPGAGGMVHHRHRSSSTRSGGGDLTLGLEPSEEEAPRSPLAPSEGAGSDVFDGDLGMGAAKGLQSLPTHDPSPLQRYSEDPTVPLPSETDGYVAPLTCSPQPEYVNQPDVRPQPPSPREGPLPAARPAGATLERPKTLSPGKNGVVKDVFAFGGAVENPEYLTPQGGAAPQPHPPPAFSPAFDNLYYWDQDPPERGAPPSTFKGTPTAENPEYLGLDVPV
T9 sequence (P35968 20-1356): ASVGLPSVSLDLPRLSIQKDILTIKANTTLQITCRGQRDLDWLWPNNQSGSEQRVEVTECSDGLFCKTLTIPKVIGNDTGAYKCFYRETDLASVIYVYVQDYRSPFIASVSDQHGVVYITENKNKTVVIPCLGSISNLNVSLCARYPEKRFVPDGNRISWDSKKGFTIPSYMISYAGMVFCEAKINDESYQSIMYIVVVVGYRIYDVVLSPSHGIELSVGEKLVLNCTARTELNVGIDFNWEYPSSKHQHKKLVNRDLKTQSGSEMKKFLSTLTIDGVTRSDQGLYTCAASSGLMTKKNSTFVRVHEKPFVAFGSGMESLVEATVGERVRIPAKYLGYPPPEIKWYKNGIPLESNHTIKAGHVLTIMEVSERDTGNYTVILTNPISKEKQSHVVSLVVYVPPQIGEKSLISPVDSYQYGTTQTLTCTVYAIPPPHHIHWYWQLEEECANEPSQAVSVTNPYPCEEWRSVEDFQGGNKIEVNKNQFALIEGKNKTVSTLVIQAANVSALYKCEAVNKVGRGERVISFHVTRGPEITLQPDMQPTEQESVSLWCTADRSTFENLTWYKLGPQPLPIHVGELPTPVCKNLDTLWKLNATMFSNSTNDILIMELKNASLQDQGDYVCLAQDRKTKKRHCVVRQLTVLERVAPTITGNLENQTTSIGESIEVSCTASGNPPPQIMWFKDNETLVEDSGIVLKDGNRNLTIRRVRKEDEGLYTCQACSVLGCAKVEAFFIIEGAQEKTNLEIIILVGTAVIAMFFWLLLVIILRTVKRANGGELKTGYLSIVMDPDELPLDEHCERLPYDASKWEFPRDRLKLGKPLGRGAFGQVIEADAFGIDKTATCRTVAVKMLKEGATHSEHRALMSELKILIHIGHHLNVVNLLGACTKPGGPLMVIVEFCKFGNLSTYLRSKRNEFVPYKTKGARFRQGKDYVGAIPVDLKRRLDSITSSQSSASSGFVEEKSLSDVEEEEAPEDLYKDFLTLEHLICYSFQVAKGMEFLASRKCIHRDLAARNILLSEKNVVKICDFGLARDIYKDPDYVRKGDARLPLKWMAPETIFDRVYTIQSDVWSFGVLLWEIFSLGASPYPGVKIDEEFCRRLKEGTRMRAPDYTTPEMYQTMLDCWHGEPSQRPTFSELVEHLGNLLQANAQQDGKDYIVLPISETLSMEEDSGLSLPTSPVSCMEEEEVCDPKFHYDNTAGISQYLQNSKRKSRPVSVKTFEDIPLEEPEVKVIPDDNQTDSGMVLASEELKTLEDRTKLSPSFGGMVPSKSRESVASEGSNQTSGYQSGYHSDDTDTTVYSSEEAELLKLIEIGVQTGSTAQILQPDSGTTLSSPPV

SMILES | fraction of kinases bound in a panel (panel of 290 kinases; panel of 290 kinases) | kinase binding spectrum (panel of 290 kinases; TKs) | % control, PI3K (DiscoverX) (PI3K [1]) | % inhibition of control activity, ErbB2 (Eurofins) (ErbB2 [2]) | % inhibition of control activity, BRAF (Eurofins) (BRAF [3]) | % inhibition of control activity, EGFR (Eurofins) (EGFR [4]) | % control, CDK2 (DiscoverX) (CDK2) | % control, p38α (DiscoverX) (p38α) | % control, ErbB2 (DiscoverX) (ErbB2 [5]) | % control, BRAF (DiscoverX) (BRAF [6]) | % control, LCK (DiscoverX) (LCK) | % control, MET (DiscoverX) (MET) | % control, VEGFR2 (DiscoverX) (VEGFR2) | % control, EGFR (DiscoverX) (EGFR [7]) | % inhibition of control activity, PI3K (Eurofins) (PI3K [8])
CCN(CC)CCNC(=O)c1c(C)[nH]c(/C=C2\C(=O)Nc3ccc(F)cc32)c1C [Sunitinib] | more than 50% |  |  |  |  |  |  |  |  |  |  |  |  |  | 
Cc1nc(Nc2ncc(C(=O)Nc3c(C)cccc3Cl)s2)cc(N2CCN(CCO)CC2)n1 [dasatinib] |  | binds to a broad spectrum of TKs with high affinity |  |  |  |  |  |  |  |  |  |  |  |  | 
O=C(NCC1CC1)Nc1ccc(N2CCOC2=O)cc1 [DS75739] |  |  | 100 % control | -0.6 (1.1) % inhibition | -11.1 (4.9) % inhibition | 4.3 (6.9) % inhibition | 100 % control | 87 % control | 94 % control | 100 % control | 100 % control | 85 % control | 100 % control | 100 % control | 1.7 (0.8) % inhibition
C[C@H](COCC(F)(F)F)NC(=O)Cc1n[nH]c(=O)c2ccccc12 [DS04644] |  |  | 100 % control | -7.4 (1.0) % inhibition | -14.7 (7.4) % inhibition | 3.4 (1.8) % inhibition | 99 % control | 100 % control | 100 % control | 97 % control | 96 % control | 100 % control | 100 % control | 100 % control | -2.8 (0.6) % inhibition
Cc1cc(=O)n2nc(N(C)CC(=O)NCc3cccs3)sc2n1 [DS72975] |  |  | 100 % control | 9.8 (21.9) % inhibition | -12.4 (1.8) % inhibition | 19.8 (5.0) % inhibition | 100 % control | 100 % control | 87 % control | 100 % control | 100 % control | 78 % control | 99 % control | 96 % control | -1.1 (2.1) % inhibition
Cc1[nH]c2nc3c(c(=O)n(Cc4ccccc4)c(=O)n3C)n2c1C [DS62156] |  |  | 66 % control | 3.1 (3.3) % inhibition | -6.3 (1.6) % inhibition | 16.6 (0.4) % inhibition | 100 % control | 97 % control | 96 % control | 95 % control | 100 % control | 87 % control | 100 % control | 90 % control | 1.5 (5.8) % inhibition
O=C1C[C@@H](c2noc(-c3ccc[nH]c3=O)n2)CN1Cc1ccccc1 [DS52225] |  |  | 100 % control | 4.5 (4.9) % inhibition | -17.7 (15.6) % inhibition | 22.7 (15.5) % inhibition | 100 % control | 100 % control | 94 % control | 100 % control | 100 % control | 91 % control | 98 % control | 100 % control | 0.9 (3.6) % inhibition
CC1(C)C2CC=C(COC(=O)c3cnn4cccnc34)C1C2 (centres unmarked) [DS34376] |  |  | 100 % control | -1.6 (1.9) % inhibition | -11.3 (4.2) % inhibition | 16.1 (7.5) % inhibition | 99 % control | 100 % control | 100 % control | 92 % control | 100 % control | 100 % control | 100 % control | 90 % control | -2 (0.8) % inhibition
